Test results taken from patent US20250269022A1, “ASSESSING AND TREATING CANCER” (Mayo Foundation for Medical Education and Research, priority 2021, published 2025).
“Also recorded” adds a separate entry of the source. Where two headings read alike, the source gives them in different places.

Key:
JeKo-1 cells [1] = test: Cytotoxicity (killing) assay of CART cells against luciferase+ JeKo-1 cells, with senolytics
Procedure: D8 CART cells were treated with navitoclax (0 μM, 0.5 μM, 1 μM, 2 μM, or 4 μM) for 24 hours and then divided into two groups. In the first group, navitoclax was washed away for proliferation and cytotoxicity assays. In the second group, navitoclax treatment was maintained during proliferation and cytotoxicity assays.
Longitudinal navitoclax treatment of CART cells. D15 and D22 CART cells were generated to mimic possible dysfunctions (e.g., exhaustion, senescence, etc.) that CART cells can develop. Serial activation of CART cells can induce T cell senescence during CART cell generation. This experiment was designed to selectively remove senescing CART cells during CART cell proliferation. During this experiment CART cells were pretreated with navitoclax, the proliferation, EDU, and cytotoxicity assays were done in the absence of navitoclax. Longitudinal treatments included two parts. Part I was a typical CART cell production protocol except for addition of navitoclax at D7 for 24 hours. Briefly, CART cells were activated on day 1, transduced on day 2, and debeaded on day 6. On day 7, CART cells were treated with navitoclax (0 μM, 0.125 μM, 0.25 μM, 0.5 μM, 0.75 μM, 1 μM, or 2 μM). On day 8, the navitoclax was washed away, and the CART cells were prepared for cytotoxicity assays and proliferation assays. For part II, JeKo-1 UDT was added to the CART cells on days 8 and 10, the media was replaced on day 12, and navitoclax was added on day 13. On day 14, the navitoclax was washed away, and the CART cells were prepared for cytotoxicity assays and proliferation assays or JeKo-1 IR was added and the CART cells were prepared for an EdU assay. The CART cells were provided several resting times after being activated by JeKo-1 to provide plenty of resting time to differentiate reversible exhaustion and irreversible T cell senescence. This assay focuses on D8 (freshly generated CART cells), D15 (D8 cells activated with JeKo-1 for a week as indicated as part II in the figure), and D22 CART cells (additional activation summarized in part II on D15 CART cells).
For killing assays, the CD19+ Luciferase+ mantle cell lymphoma cell like JeKo-1 cells were incubated with effector T cells for 24, 48, or 72 hours. Killing was calculated by bioluminescence imaging on a Xenogen IVIS-200 Spectrum camera (PerkinElmer, Hopkinton, MA, USA) as a measure of residual live cells. Samples were treated with 1 μL D-luciferin (30 μg/mL) per 100 μL sample volume (Gold Biotechnology, St. Louis, MO, USA), for 10 minutes prior to imaging.

JeKo-1 cells [2] = test: CART19 killing of luciferase+ JeKo-1 cells in combination with small molecules; assay type: cell-based
Procedure: CART19 cells were cultured in combination with different molecules at the indicated ratios/concentration, and in combination with the luciferase+ JeKo-1 cells at the indicated E:T ratios. Killing was determined after 24 hours using bioluminescence imaging.

CART cells [3] = test: Proliferation assay of CART cells co-cultured with JeKo-1 cells, with navitoclax or venetoclax; assay type: cell-based
Excerpt: Longitudinal navitoclax treatment of CART cells. […] Longitudinal treatments included two parts.
For proliferation assays, effector cells (CART cells), and irradiated target cells (CD19+ JeKo 1 cells) were co-cultured at different ratios and with different concentrations of the compounds. Cells were co-cultured for 3-5 days, and then cells were harvested and surface staining with antihCD3 (eBioscience, San Diego, CA, USA) and LIVE/DEAD™ Fixable Aqua Dead Cell Stain Kit (Invitrogen, Carlsbad, CA, USA) was performed.

JeKo1 cell line = test: In vivo JeKo1 xenograft with navitoclax-treated CART cells; parameters: species or system NSG mice
Excerpt: NSG mice were engrafted with the luciferase positive, CD19+ JeKo1 cell line I.V. One week later, mice underwent bioluminescence imaging (BLI) to determine the level of the disease and then randomized to treatment with CART cells. Mice then underwent weekly BLI to measure disease burden and were followed for survival.

CART cells [4] = test: EdU assay of cycling CART cells; assay type: cell-based; settings: navitoclax treated
Procedure: Longitudinal navitoclax treatment of CART cells. […] […] Longitudinal treatments included two parts. […] Cells were co-cultured for 3-5 days, and then cells were harvested and surface staining with […]3 (eBioscience, San Diego, CA, USA) and LIVE/DEADTM Fixable Aqua Dead Cell Stain Kit (Invitrogen, Carlsbad, CA, USA) was performed.

PD-L1 = target: T1, PD-L1 (Homo sapiens, UniProt Q9NZQ7); test: CART19 antigen-specific proliferation with PD-L1 blockade in presence of PD-L1high CLL-derived EVs; assay type: cell-based; settings: PD-L1high CLL-derived EVs 100:1, 6 hours, JeKo-1 at E:T 5:1, antibody 20 μg/mL
T1 construct: These PPP preparations from the peripheral blood of untreated CLL patients are the source of the samples called CLL-derived EVs; from tissue; host or cells: extracellular vesicles in platelet-poor plasma of untreated CLL patients, co-cultured with CART19 cells and then JeKo-1 cells
Procedure: CART19 and JeKo-1 or JeKo-1 cells irradiated at 120 Gy were cocultured at a 1:1 ratio with or without CLL-derived EVs. T cells for functional assays were cultured in T cell medium containing X-VIVO 15 (Lonza, Walkersville, MD, USA), 10% human serum albumin (Innovative Research, Novi, MI, USA), and 1% penicillin-streptomycin-glutamine (Gibco, Gaithersburg, MD, USA). EVs were cocultured with CART19 cells at 100:1, 10:1, 5:1, and 1:1 EV/CART cell ratios using three biological replicates of CLL-derived EVs at 37° C., 5% CO2, and then co-cultured with primary CLL cells or JeKo-1 cells as indicated in the specific experiment. Cell supernatant was collected at 24 hours, and cells were analyzed by flow cytometry. To assess killing and proliferation, UTD T cells, CART19 cells, and CART19 cells co-cultured with CLL-derived EVs at a 100:1 EV/CART cell ratio were incubated at 37° C., 5% CO2 for 6 hours before adding JeKo-1 target cells. […] Cells were analyzed by flow cytometry after 48 hours of incubation.

T1 sequence (Q9NZQ7 19-290): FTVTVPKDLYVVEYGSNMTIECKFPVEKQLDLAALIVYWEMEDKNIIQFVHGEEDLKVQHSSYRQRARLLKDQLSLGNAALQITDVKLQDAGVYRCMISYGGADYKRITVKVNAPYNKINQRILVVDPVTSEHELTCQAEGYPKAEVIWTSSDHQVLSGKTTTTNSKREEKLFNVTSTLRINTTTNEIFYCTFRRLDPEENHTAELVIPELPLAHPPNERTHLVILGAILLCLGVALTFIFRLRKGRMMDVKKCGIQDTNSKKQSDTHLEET

CC1(C)CCC(CN2CCN(c3ccc(C(=O)NS(=O)(=O)c4ccc(NCC5CCOCC5)c([N+](=O)[O-])c4)c(Oc4cnc5[nH]ccc5c4)c3)CC2)=C(c2ccc(Cl)cc2)C1 [venetoclax]
CART cell cytotoxicity against JeKo-1 in combination with senolytic (JeKo-1 cells [1]): increased CART cell cytotoxicity

CC(C)(CO)[C@@H](O)C(=O)NCCC(=O)NCCSSCCNC(=O)CCNC(=O)[C@H](O)C(C)(C)CO [panthethine, D-pantethine]
CART19 antigen specific killing (JeKo-1 cells [2]): improved CART19 antigen specific killing

CC1(C)CCC(c2ccc(Cl)cc2)=C(CN2CCN(c3ccc(C(=O)NS(=O)(=O)c4ccc(N[C@H](CCN5CCOCC5)CSc5ccccc5)c(S(=O)(=O)C(F)(F)F)c4)cc3)CC2)C1 [navitoclax]
CART cell proliferation against JeKo-1 in combination with senolytic (CART cells [3]; CART cells co-cultured with JeKo-1 in presence of drug): decreased CART cell proliferation
CART cell proliferation (CART cells [3]; D8 CART cells continuously treated with navitoclax, co-culture with JeKo-1, vs untreated CART cells): decreased proliferation
D22 CART cell proliferation (CART cells [3]; longitudinal navitoclax treatment vs navitoclax untreated CART cells, in vitro): increase in D22 CART proliferation
CART cell proliferation over time (CART cells [3]; longitudinal navitoclax treatment, D8, D15, D22): decreased proliferation of CART cells through time; also recorded: decreases over time
Cytotoxicity of drug alone against JeKo-1 (JeKo-1 cells [1]; 0:1 E:T ratio (no CART)): cytotoxic against JeKo-1
CART cell cytotoxicity against JeKo-1 in combination with senolytic (JeKo-1 cells [1]; D8 CART cells co-cultured with JeKo-1 and drug, 48 hours): increased CART cell cytotoxicity
CART cell cytotoxicity against JeKo-1 (JeKo-1 cells [1]; navitoclax maintained in assay, higher navitoclax concentrations): decreased CART cell cytotoxicity
CART cell cytotoxicity against JeKo-1 (JeKo-1 cells [1]; navitoclax pre-treatment 24 hours, assay without navitoclax): did not result in different cytotoxicity
Tumor burden of mice (JeKo1 cell line; D22 CART cells treated with or without navitoclax, 22 days after CART cell transplantation): not different
Antitumor activity of CART cells in vivo (JeKo1 cell line; navitoclax pretreatment of CART cells): did not increase antitumor activity; also recorded: did not improve CART cell activity
EdU positivity of CART cells (CART cells [4]; D8 and D22 CART cells): similar
EdU positivity of CART cells (CART cells [4]; D15 CART cells): decreased

O=S(=O)(c1cccc2cnccc12)N1CCCNCC1 [fasudil]
CART19 antigen specific killing (JeKo-1 cells [2]; combination with CART19 cells, 24 hours, bioluminescence): improved CART19 antigen specific killing

atezolizumab [anti-PD-L1 antibody]
Reversal of EV-mediated inhibition of CART19 antigen-specific proliferation (PD-L1): did not improve
Reversal of EV-mediated inhibition of CART19 antigen-specific proliferation (PD-L1; listed as PD-L1 blocking antibodies): no statistically significant reversal
